Here are results for three molecules from patent US6147077A, “2R,4S-hydroxyitraconazole isomers” (priority 1999, dated 2000).

Converted amounts (≈) assume the structure as drawn. “Also recorded” adds a separate entry of the source. Like-named read-outs stand apart in the source and are kept apart here.

For series [1], the system named is Candida albicans. The experiment in a line: Antifungal MIC, Candida albicans. The format is cell-based. To be noted: Candida albicans. As for the experimental part:
(§1) A 10 mL tube containing 4 mL of Sabourauds dextrose broth was inoculated with 1 colony of Candida albicans picked from a plate of pure culture. The strain was ordered from the American Type Culture Collection (ATCC). The organism was grown for 4 hours at 30° C. while shaking at 150 RPM. While the organism was growing, samples of hydroxy-itraconazoles were solubilized to a concentration of 10 mg/mL in DMSO. Each sample was then diluted 1:10 to make 1 mg/mL samples or 1000 μg/mL. These samples were then diluted by serial 2-fold dilutions to produce samples now containing 1000, 500, 250, 125, 62.5, 31.25, 15.6 μg/mL. […] At 4 hours of growth time the Candida albicans was diluted to a 0.5 McFarland standard representing about 10^5 -10^6 cells/mL and 1 μL of this inoculum placed into each test well of the microtiter dish. The dish was then covered and incubated at 30° C. for 16 hours.

Series [2] in a line: Hydrolysis of phosphate esters in equine pancreas. The format is in vitro ADME. To be noted: both free acid and bis(N-methylglucamine) salt. As for the experimental part: (§2) The phosphate analogs of the isomers with the largest IC50 /MIC ratios, 1, 2 and 3+4 were further investigated for hydrolysis in plasma and tissues. […] The A% conversion (as determined by HPLC A% analysis) of the phosphate ester to the hydroxy compound was determined in three systems: human plasma, equine pancreas and porcine brain. […] Hydrolysis proceeded to >10% overnight at 37° C. in pancreas and brain, and 3% in human plasma. The hydrolyses of the three phosphates of 1, 2 and 3+4 were also studied in various rat tissues and plasma. In all cases, the jejunum and liver gave the greatest conversion to hydroxyitraconazole, ranging from 20% to 40% for the free acids.

The next series deals with Cr. neoformens. Nature of the series: Antifungal MIC, Cr. neoformens. The format is cell-based, Cryptococcus neoformens. As to conditions: Cryptococcus. As for the experimental part: [The source words this procedure for another organism and reports this organism under the same test.] as §1
For the next series, the system named is S. cerevisae. Nature of the series: Antifungal MIC, S. cerevisae. The format is cell-based, Saccharomyces cerevisiae. As to conditions: Saccharomyces cerevisiae. As for the experimental part:
[The source words this procedure for another organism and reports this organism under the same test.] as §1

Series [3] in a line: Hydrolysis of phosphate esters in human plasma. The format is in vitro ADME. To be noted: both free acid and bis(N-methylglucamine) salt. As for the experimental part: as §2
Series [4] can be described thus: Hydrolysis of phosphate esters in porcine brain. The format is in vitro ADME. To be noted: both free acid and bis(N-methylglucamine) salt. The protocol:
as §2

The test system of the next series is Aspergillis. Nature of the series: Kirby-Bauer Testing, Aspergillis. The format is cell-based. As to conditions: 16 h, 10 μl of 10 mg/mL per disk.
Series [5] addresses T1, cytochrome P450 3A4 (Homo sapiens, UniProt P08684).
Description: (§3) The IC50 values were determined by the appearance of 6β-hydroxytestosterone after incubation with testosterone. […] Of greater clinical significance is the ratio of the IC50 for 3A4 to the MIC for C. albicans 44203.
The subject of a further series is A. fumigatis. The experiment in a line: Antifungal MIC, A. fumigatis. The format is cell-based. To be noted: A. fumigatis (Table 3). The protocol:
[The source words this procedure for another organism and reports this organism under the same test.] as §1

The subject of the next series is Sacchromyces cerevisae. Nature of the series: Kirby-Bauer Testing, Saccharomyces cerevisiae. The format is cell-based. As to conditions: Saccharomyces cerevisiae, 10 μl of 10 mg/mL per disk, 30° C., 16 hours. As for the experimental part: The hydroxyitraconazole isomers were tested for biological activity according three different assays.
Actively growing cultures of Candida albicans, Cryptococcus neoformens and Saccharomyces cerevisiae were prepared as described above. The cultures were diluted to a 0.5 McFarland standard and swabbed onto a 150 mm Sabouraud Dextrose agar plates. Paper disks (7 mm) were placed onto the agar plates using a disk dispenser. […] The plates were then incubated at 30° C. for 16 hours. Zones of inhibition were then measured in mm.

A short description of series [6]: Water solubility of hydroxyitraconazole phosphate isomers (NMG salts). The format is physicochemical. As to conditions: water; Table 8. From the text: The water solubility of the NMG salts of the phosphate esters of isomers 1, 2 and 3+4 were investigated and compared to the corresponding hydroxyitraconazole isomers 1, 2 and 3+4. The phosphate esters were as much as 10^7 times more water soluble than the corresponding hydroxyitraconazole isomer.

In the next series the test system is Cryptococcus neoformens. The experiment in a line: Kirby-Bauer Testing, Cryptococcus neoformens. The format is cell-based. To be noted: 10 μl of 10 mg/mL per disk, 30° C., 16 hours. As for the experimental part: The hydroxyitraconazole isomers were tested for biological activity according three different assays. Table 2 summarizes the results of Kirby-Bauer Testing against three actively growing cultures: Candida albicans, Cryptococcus neoformens and Saccromyces cerevisiae.
Actively growing cultures of Candida albicans, Cryptococcus neoformens and Saccharomyces cerevisiae were prepared as described above. The cultures were diluted to a 0.5 McFarland standard and swabbed onto a 150 mm Sabouraud Dextrose agar plates. Paper disks (7 mm) were placed onto the agar plates using a disk dispenser. Next 10 μl of 10 mg/mL solutions of each sample hydroxy-itraconazole was pipetted onto separate paper disks. The plates were then incubated at 30° C. for 16 hours. Zones of inhibition were then measured in mm.

Series [7] addresses T1, cytochrome P450 3A4. Nature of the series: Inhibition of cytochrome P450 3A4 (testosterone 6β-hydroxylase activity).
Description: as §3
Series [8] can be described thus: Water solubility of hydroxyitraconazole isomers and itraconazole. The format is physicochemical. As for the experimental part: The isomers of cis hydroxyitraconazole were tested for water solubility against a […] standard solution of hydroxyitraconazole. […] The values for 3+4 and 11+12 are barely above the LOD, giving accuracies of ±10%. In every case, solubilities were in the 10^1 to 10^2 ng/ml range.

Series [9] deals with Candida albicans. Nature of the series: Kirby-Bauer Testing, Candida albicans. The format is cell-based. As to conditions: 10 μl of 10 mg/mL per disk, 30° C., 16 hours. As for the experimental part:
The hydroxyitraconazole isomers were tested for biological activity according three different assays. Table 2 summarizes the results of Kirby-Bauer Testing against three actively growing cultures: Candida albicans, Cryptococcus neoformens and Saccromyces cerevisiae. […] A 10 mL tube containing 4 mL of Sabourauds dextrose broth was inoculated with 1 colony of Candida albicans picked from a plate of pure culture. The strain was ordered from the American Type Culture Collection (ATCC). The organism was grown for 4 hours at 30° C. while shaking at 150 RPM. While the organism was growing, samples of hydroxy-itraconazoles were solubilized to a concentration of 10 mg/mL in DMSO. Each sample was then diluted 1:10 to make 1 mg/mL samples or 1000 μg/mL. […] A 96-well microtiter dish was set up with 98 μL of liquid growth media in each test well, along with 1 μL of hydroxy-itraconazole solution. At 4 hours of growth time the Candida albicans was diluted to a 0.5 McFarland standard representing about 10^5 -10^6 cells/mL and 1 μL of this inoculum placed into each test well of the microtiter dish. The dish was then covered and incubated at 30° C. for 16 hours. Actively growing cultures of Candida albicans, Cryptococcus neoformens and Saccharomyces cerevisiae were prepared as described above. […] Zones of inhibition were then measured in mm.

The test system of the next series is fungi and bacteria. To be noted: cited from earlier work.
The conditions of series [10]: cited from earlier work.
For series [11] the following is noted: cited from earlier work. This is another data set of the same source.
Another series relates to synthesis of ergosterol. As to conditions: cited from earlier work.

T1 sequence (P08684 whole entry): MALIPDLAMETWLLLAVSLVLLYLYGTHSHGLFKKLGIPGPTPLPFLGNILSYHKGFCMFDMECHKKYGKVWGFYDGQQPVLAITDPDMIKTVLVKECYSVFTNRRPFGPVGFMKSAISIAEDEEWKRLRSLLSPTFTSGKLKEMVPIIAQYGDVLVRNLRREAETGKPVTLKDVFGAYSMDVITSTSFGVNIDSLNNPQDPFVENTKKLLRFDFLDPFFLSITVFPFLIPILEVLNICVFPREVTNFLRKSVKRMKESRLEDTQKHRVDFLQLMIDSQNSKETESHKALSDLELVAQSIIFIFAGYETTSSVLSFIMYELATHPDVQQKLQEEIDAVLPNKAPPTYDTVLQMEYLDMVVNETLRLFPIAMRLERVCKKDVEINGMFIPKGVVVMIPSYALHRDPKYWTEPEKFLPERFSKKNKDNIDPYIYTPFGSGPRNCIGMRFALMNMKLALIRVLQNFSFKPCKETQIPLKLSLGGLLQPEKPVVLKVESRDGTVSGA

For orientation: MIC means the lowest concentration found to suppress growth. On to `C[C@H](OP(=O)(O)O)[C@@H](C)n1ncn(-c2ccc(N3CCN(c4ccc(OC[C@H]5CO[C@](Cn6cncn6)(c6ccc(Cl)cc6Cl)O5)cc4)CC3)cc2)c1=O` [Compound 2-phosphate], for which the MIC came out at 12.5 µg/mL (≈ 15.6 µM) in the series on Candida albicans [1] (C. albicans (Table 7, esters), read-out: Antifungal MIC); 12.5 µg/mL (≈ 15.6 µM) in the series on Cr. neoformens (Cr. neoformens (Table 7, esters)); 12.5 µg/mL (≈ 15.6 µM) in the series with S. cerevisae (S. cerevisae (Table 7, esters)). Also, the “Ease of hydrolysis of phosphate ester” value in series [2], in series [3] and in series [4] was “most readily hydrolyzed compound in all three systems” each time.

One may read the zone of inhibition as the size of the clear area around the sample on an inoculated plate. Low readings indicate a weaker effect on the plate, high ones a stronger effect on the plate. In general, solubility refers to the concentration that dissolves in the medium under given conditions. The IC50 is the concentration needed to halve the response being measured. As to `C[C@@H](O)[C@H](C)n1ncn(-c2ccc(N3CCN(c4ccc(OC[C@H]5CO[C@](Cn6cncn6)(c6ccc(Cl)cc6Cl)O5)cc4)CC3)cc2)c1=O` [Compound 1], the zone of inhibition at 10000 µg/mL was 27 mm in the series on Aspergillis, 22 mm in the series with Sacchromyces cerevisae, 28 mm in the series on Cryptococcus neoformens and 22 mm with Candida albicans [9]. In addition, the “Inhibition of P450 3A4 in words” value on cytochrome P450 3A4 [5] is given as “notably less inhibition of the P450 3A4 enzyme than the 2S,4R isomers”. Moreover, the MIC with Candida albicans [1] (C. albicans strain 10231 (Table 3), read-out: Antifungal MIC) was determined as 1 µg/mL (≈ 1.39 µM); in the series with Candida albicans [1] (C. albicans strain 28516 (Table 3), read-out: Antifungal MIC), 0.25 µg/mL (≈ 0.346 µM); in the series with Candida albicans [1] (C. albicans strain 28815 (Table 3), read-out: Antifungal MIC) it was 0.125 µg/mL (≈ 0.173 µM); in the series on Candida albicans [1] (C. albicans strain 44203 (Table 3), read-out: Antifungal MIC), 0.05 µg/mL (≈ 0.0693 µM); in the series on Candida albicans [1] (C. albicans strain 44373 (Table 3), read-out: Antifungal MIC), 0.5 µg/mL (≈ 0.693 µM); in the series with Candida albicans [1] (C. albicans strain 62342 (Table 3), read-out: Antifungal MIC) it was 0.5 µg/mL (≈ 0.693 µM). In addition, the minimal inhibitory concentration (MIC) in the series on Candida albicans [1] (Candida albicans strain 44203 (Table 4), read-out: MIC) is 0.05 µg/mL (≈ 0.0693 µM); with A. fumigatis it was 0.137 µg/mL (≈ 0.19 µM); with Cr. neoformens (Cr. neoformens (Table 3)) it was 0.39 µg/mL (≈ 0.54 µM); in the series with S. cerevisae (S. cerevisae (Table 3)), 0.195 µg/mL (≈ 0.27 µM). In addition, the solubility in series [6] is 0.051 µg/mL; in [8] (water, LOD: 5000 μV*sec, order-of-magnitude accuracy below LOD, 3+4 and 11+12 ±10%) it was 0.051 µg/mL (≈ 0.0707 µM). On cytochrome P450 3A4 [7], this molecule came in with an IC50 of 2800 nM. Further, at cytochrome P450 3A4 [7], the selectivity ratio amounted to 56. Besides, the “IC50/MIC ratio in words” value at cytochrome P450 3A4 [7] (therapeutic index, 3A4 vs C. albicans 44203) is reported as “excellent results”. Further, the Area in series [8] (λmax = 260 nm, LOD 5000 μV*sec) came to 1499 μV*sec.

For the molecule `CCC(C)n1ncn(-c2ccc(N3CCN(c4ccc(OC[C@H]5CO[C@](Cn6cncn6)(c6ccc(Cl)cc6Cl)O5)cc4)CC3)cc2)c1=O` (relative stereo) [itraconazole, 4-[4-[4-[4-[[2-(2,4-dichlorophenyl)-2-(1H-1,2,4-triazol-1-ylmethyl)-1,3-dioxolan-4-yl]methoxy]phenyl]-1-piperazinyl]phenyl]-2,4-dihydro-2-(1-methylpropyl)-3H-1,2,4-triazol-3-one], in the series with Candida albicans [1], inhibition of growth (MIC) required 0.06 µg/mL (≈ 0.085 µM). This molecule registered a zone of inhibition at 10000 µg/mL in the series on Sacchromyces cerevisae of 15 mm. For the same molecule, the “Effect of serum on antifungal activity” value in the series with fungi and bacteria (Sabouraud broth containing 10% inactivated bovine serum) is listed as “enhanced in vitro”. Further, in the series with fungi and bacteria (Sabouraud broth, 14 days, Microsporum canis, Trichophyton mentagrophytes, Candida albicans, Aspergillus spp. and others), the Inhibition of growth entry is on record as “Complete or marked inhibition of growth”. In addition, the Adverse effects entry in series [10] (administration of itraconazole) is “hepatotoxicity and inhibition of drug metabolism in the liver; also recorded: Hypersensitivity reactions including urticaria and elevations in serum liver enzymes”. In series [10] (racemic itraconazole concurrently with terfenadine), the “Torsades de Pointes” value is “Torsades de Pointes, has been reported”. The “Urinary excretion of metabolites” value in series [11] (in most subjects) was “no metabolites are excreted in the urine”. For the same molecule, the “Absorption following oral administration” value in [11] (oral) was “slowly absorbed”. In addition, the Pharmacokinetic behavior result in series [11] (oral) is “nonlinear”. Also, the Water solubility entry in series [8] (LOD: 5000 μV*sec, order-of-magnitude accuracy below LOD, 3+4 and 11+12 ±10%, listed as Itraconazole) was “such low water solubility that it could not be determined by this method”; in series [8] (LOD: 5000 μV*sec, order-of-magnitude accuracy below LOD, 3+4 and 11+12 ±10%, listed as ±Itraconazole), “not detected”. The “Effect on synthesis of ergosterol” value in the series with synthesis of ergosterol was “impairs the synthesis of ergosterol”.
